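96-well plates; 48 h exposure; 5 concentrations. Endpoints by linear interpolation between flanking doses. Not reached: highest tested concentration assigned. Abbreviation: GI50, concentration required for 50% inhibition of growth. TGI marks complete inhibition of growth.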
What was measured:
Test in all cases: NCI anticancer screen, dose series, 48 h
CCRF-CEM leukemia = tested on: CCRF-CEM leukemia
SW-620 colon = tested on: SW-620 colon
OVCAR-3 ovarian = tested on: OVCAR-3 ovarian
HT29 colon = tested on: HT29 colon
EKVX NSCLC = tested on: EKVX NSCLC
NCI/ADR-RES ovarian = tested on: NCI/ADR-RES ovarian
HOP-62 NSCLC = tested on: HOP-62 NSCLC
SF-295 CNS = tested on: SF-295 CNS
MALME-3M melanoma = tested on: MALME-3M melanoma
OVCAR-4 ovarian = tested on: OVCAR-4 ovarian

| SMILES | GI50 (CCRF-CEM leukemia) [µM] | TGI (CCRF-CEM leukemia) [µM] | GI50 (SW-620 colon) [µM] | TGI (SW-620 colon) [µM] | GI50 (OVCAR-3 ovarian) [µM] | TGI (OVCAR-3 ovarian) [µM] | GI50 (HT29 colon) [µM] | TGI (HT29 colon) [µM] | GI50 (EKVX NSCLC) [µM] | TGI (EKVX NSCLC) [µM] | GI50 (NCI/ADR-RES ovarian) [µM] | TGI (NCI/ADR-RES ovarian) [µM] | GI50 (HOP-62 NSCLC) [µM] | TGI (HOP-62 NSCLC) [µM] | GI50 (SF-295 CNS) [µM] | TGI (SF-295 CNS) [µM] | TGI (MALME-3M melanoma) [µM] | TGI (OVCAR-4 ovarian) [µM] | GI50 (MALME-3M melanoma) [µM] | GI50 (OVCAR-4 ovarian) [µM] |
| --- | --- | --- | --- | --- | --- | --- | --- | --- | --- | --- | --- | --- | --- | --- | --- | --- | --- | --- | --- | --- |
| CCCCCC[C@@H](C)NC(=O)c1ccc(Nc2nc3ccccc3c3occc23)cc1 | 3.89 | 15.4 | 3.38 | > 100 | 2.88 | > 100 | 2.81 | > 100 | 1.52 | 5.04 | 2.53 | > 100 | 3.28 | 27.7 | 4.39 | > 100 | – | – | – | – |
| Cc1cccc(C)c1N1C(=O)C(=O)C(c2nc3ccccc3s2)/C(=N/NC(=O)c2ccccc2O)C1=O (stereo unspecified) | – | > 65.3 | – | > 100 | – | > 100 | – | > 100 | – | > 100 | – | – | – | > 100 | – | > 100 | > 100 | > 100 | – | – |
| N#CC(C#N)=Cc1ccc(CP(=O)(O)O)cc1 | – | > 100 | – | > 100 | – | > 100 | – | > 100 | – | > 100 | – | – | – | > 100 | – | > 100 | > 100 | > 100 | – | – |
| O=C(CI)Nc1ccc(O)c2ccccc12 | – | – | 0.282 | 0.886 | 0.857 | 2.23 | 0.504 | 2.8 | 2.52 | 8.59 | 2.97 | 14.8 | 2.27 | 5.14 | 3.38 | 11.3 | 1.16 | 1.23 | 0.547 | 0.575 |
| COc1ccc2c(c1)NC1(O)c3ccccc3C(=O)C21O (stereo unspecified) | – | > 100 | – | > 100 | – | > 100 | – | > 100 | – | – | – | – | – | > 100 | – | > 100 | > 100 | – | – | – |
| O=S(=O)(N=NC=C1c2ccccc2N(O)c2ccccc21)c1ccc(Cl)cc1 | – | > 100 | – | > 100 | – | > 100 | – | > 100 | – | > 100 | – | – | – | > 100 | – | > 100 | > 100 | > 100 | – | – |
| CC1=NOC(=O)/C1=C/c1ccc([N+](=O)[O-])cc1 | – | > 100 | – | > 100 | – | > 100 | – | > 100 | – | > 100 | – | – | – | > 100 | – | > 100 | > 100 | > 100 | – | – |
| NC(=O)c1cccc(OCC(O)CO)c1 (stereo unspecified) | – | > 100 | – | > 100 | – | > 100 | – | > 100 | – | > 100 | – | > 100 | – | > 100 | – | > 100 | – | > 100 | – | – |
| COc1cc(C(=O)O[C@H](C(=O)NCCN(C)CCNC(=O)[C@@H](OC(=O)c2cc(OC)cc3c(C)cccc23)[C@]2(C)CO2)[C@]2(C)CO2)c2cccc(C)c2c1 | < 0.01 | – | < 0.01 | 0.152 | – | – | < 0.0184 | > 27 | 0.106 | 1.72 | < 0.0506 | 1.3 | 0.893 | 7.85 | < 0.0337 | 0.182 | – | 0.679 | – | 0.056 |
| CC(C)(C)N/N=C(\C(=O)Nc1nc(=S)[nH][nH]1)C1C(=O)Nc2ccccc2S1=O (stereo unspecified) | – | > 100 | – | > 100 | – | > 100 | – | > 100 | – | > 100 | – | – | – | > 100 | – | > 100 | > 100 | > 100 | – | – |
| ClCc1ccccc1Cn1cnc2c(Cl)ncnc21 | 1.28 | 3.24 | 1.78 | 5.04 | 1.4 | 3.53 | 3.56 | > 100 | 3.11 | 11 | 2.21 | 4.72 | 2.52 | 6.03 | 10.5 | 23.3 | – | 12.2 | – | 3.39 |
| CC(=O)NNc1nc(C)c(C(=O)/C=C/c2ccc(Cl)cc2)s1 | – | > 100 | – | > 100 | – | > 100 | – | > 100 | – | > 100 | – | – | – | > 100 | – | > 100 | > 100 | – | – | – |
| CCCCc1c2cnccc2c(CCCC)c2c1[nH]c1ccccc12 | – | 99 | – | > 100 | – | 19.6 | – | 29 | – | 36 | – | – | – | 18.8 | – | 20.2 | 37.8 | 29.8 | – | – |
| Cc1nc(/C=C2\C(=O)C=Cc3ccccc32)c(O)o1 | – | > 100 | – | > 100 | – | – | – | > 100 | – | > 100 | – | – | – | > 100 | – | > 100 | > 100 | > 100 | – | – |
| Cc1c(Cl)cccc1NC(=O)/C=C/c1ccccc1 | – | > 100 | – | > 100 | – | > 100 | – | > 100 | – | > 100 | – | – | – | > 100 | – | > 100 | > 100 | > 100 | – | – |
| N/N=C(\c1nc2ccc(Cl)cc2[nH]c1=O)C(O)c1ccc(Cl)c(Cl)c1 (stereo unspecified) | – | > 100 | – | > 100 | – | > 100 | – | > 100 | – | > 100 | – | – | – | > 100 | – | > 100 | > 100 | 87.8 | – | – |
| COc1cc2c(cc1OC)C1Cc3ccc(OC)c(OC)c3C[N+]1([O-])CC2 (stereo unspecified) | – | > 100 | – | > 100 | – | > 100 | – | > 100 | – | > 100 | – | – | – | > 100 | – | > 100 | > 100 | > 100 | – | – |
| CC1CC(C)C2OC2(C)C[C@H](C)C(=O)NC(C)C(=O)N(C)[C@H](Cc2c(Br)[nH]c3ccccc23)C(=O)N[C@@H](c2ccc(O)cc2)CC(=O)O1 (stereo partly specified) | – | > 65 | – | > 90.2 | – | 9.61 | – | – | – | 75.8 | – | – | – | 1.4 | – | 31.3 | 14 | 1.09 | – | – |
| COc1ccc(C(=O)CC2=Nc3nnc(CCCCCCCc4nnc5n4C(=O)C(CC(=O)c4ccc(OC)cc4)=N5)n3C2=O)cc1 | – | > 100 | – | > 100 | – | > 100 | – | > 100 | – | > 100 | – | – | – | > 100 | – | > 100 | > 100 | – | – | – |

— PubChem BioAssay (NCI)
